These results are taken from PMC9719519, “Non-classical ferroptosis inhibition by a small molecule targeting PHB2” (Nature Communications, 2022).

Assay in all cases: biochemical
Common to all, as to design: Eurofins recombinant human kinase profiling, remaining kinase activity as % of control, 10 uM ATP
What all share (conditions): ATP 10 uM; read-out: %Ctrl@10 μM

One experiment concerns the target T1, ROCK-II(h) (Homo sapiens, UniProt O75116).
T1 construct: gene ROCK2
Summed up: (§1)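 Activity measured in a commercial panel of 401 recombinant human protein kinases run as a kinase profiling service.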

The target in the next experiment is CSK(h) (Homo sapiens, UniProt P41240). Summed up: as §1
The target of a further experiment is Ret(V804M)(h) (Homo sapiens, UniProt P07949, V804M). The gist of the method:
as §1

Another experiment addresses T2, CaMKIIβ(h) (Homo sapiens, UniProt Q13554).
T2 construct: gene CAMK2B
The gist of the method: as §1

A further experiment has as its target NEK2(h) (Homo sapiens, UniProt P51955). Summed up: as §1
The next experiment has as its target TNIK(h) (Homo sapiens, UniProt Q9UKE5). The gist of the method:
as §1

Another experiment concerns the target EGFR(L858R)(h) (Homo sapiens, UniProt P00533, L858R). Summed up:
as §1

Another experiment addresses TSSK4(h) (Homo sapiens, UniProt Q6SA08). The gist of the method: as §1
The next experiment deals with T3, MSK1(h) (Homo sapiens, UniProt O75582).
T3 construct: gene RPS6KA5
The gist of the method:
as §1

The target in the next experiment is T4, MLCK(h) (Homo sapiens, UniProt Q15746).
T4 construct: gene MYLK
Summed up:
as §1

For the next experiment, the target named is ATR/ATRIP(h) (Homo sapiens, UniProt Q13535). Summed up: as §1
The target of the next experiment is Txk(h) (Homo sapiens, UniProt P42681). The gist of the method:
as §1

Another experiment concerns the target CaMKK1(h) (Homo sapiens, UniProt Q8N5S9). Summed up:
as §1

For a further experiment, the target named is T5, Pyk2(h) (Homo sapiens, UniProt Q14289).
T5 construct: gene PTK2B
The gist of the method: as §1

A further experiment addresses CDK13/cyclinK(h) (Homo sapiens, UniProt Q14004). The gist of the method: as §1
For the next experiment, the target named is Lyn(h) (Homo sapiens, UniProt P07948). The gist of the method:
as §1

Another experiment deals with MELK(h) (Homo sapiens, UniProt Q14680). The gist of the method: as §1
A further experiment has as its target EphB4(h) (Homo sapiens, UniProt P54760). Summed up:
as §1

For the next experiment, the target named is WNK2(h) (Homo sapiens, UniProt Q9Y3S1). Summed up:
as §1

For another experiment, the target named is T6, IKKε(h) (Homo sapiens, UniProt Q14164).
T6 construct: gene IKBKE
The gist of the method: as §1

The target in another experiment is T7, HRI(h) (Homo sapiens, UniProt Q9BQI3).
T7 construct: gene EIF2AK1
The gist of the method:
as §1

Another experiment addresses SBK1(h) (Homo sapiens, UniProt Q52WX2). Summed up:
as §1

The next experiment concerns the target T8, cKit(h) (Homo sapiens, UniProt P10721).
T8 construct: gene KIT
Summed up: as §1

Sequence of SBK1(h) (Q52WX2 whole entry): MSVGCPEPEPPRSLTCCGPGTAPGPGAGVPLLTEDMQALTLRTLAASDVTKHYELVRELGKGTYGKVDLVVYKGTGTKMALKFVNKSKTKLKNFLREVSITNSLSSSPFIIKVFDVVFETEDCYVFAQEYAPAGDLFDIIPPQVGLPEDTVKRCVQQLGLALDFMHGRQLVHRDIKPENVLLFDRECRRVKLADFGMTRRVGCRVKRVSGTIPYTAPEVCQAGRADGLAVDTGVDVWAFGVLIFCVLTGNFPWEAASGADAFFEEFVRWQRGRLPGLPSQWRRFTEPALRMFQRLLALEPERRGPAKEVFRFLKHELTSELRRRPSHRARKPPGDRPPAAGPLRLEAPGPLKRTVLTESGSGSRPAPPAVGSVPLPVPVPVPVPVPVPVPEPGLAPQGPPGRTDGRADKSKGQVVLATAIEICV
Sequence of NEK2(h) (P51955 whole entry): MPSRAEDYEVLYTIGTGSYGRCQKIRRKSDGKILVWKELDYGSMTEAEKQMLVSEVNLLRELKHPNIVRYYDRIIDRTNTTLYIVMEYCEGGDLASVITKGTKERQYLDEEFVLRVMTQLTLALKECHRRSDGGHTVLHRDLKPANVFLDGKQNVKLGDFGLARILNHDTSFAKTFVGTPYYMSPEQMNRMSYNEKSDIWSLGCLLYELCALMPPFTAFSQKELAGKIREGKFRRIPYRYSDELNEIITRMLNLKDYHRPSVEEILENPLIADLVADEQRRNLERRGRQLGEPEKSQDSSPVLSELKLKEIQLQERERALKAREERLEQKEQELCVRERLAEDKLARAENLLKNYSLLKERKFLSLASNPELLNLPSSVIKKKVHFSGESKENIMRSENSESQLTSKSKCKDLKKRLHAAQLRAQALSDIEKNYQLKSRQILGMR
Sequence of CDK13/cyclinK(h) (Q14004 whole entry): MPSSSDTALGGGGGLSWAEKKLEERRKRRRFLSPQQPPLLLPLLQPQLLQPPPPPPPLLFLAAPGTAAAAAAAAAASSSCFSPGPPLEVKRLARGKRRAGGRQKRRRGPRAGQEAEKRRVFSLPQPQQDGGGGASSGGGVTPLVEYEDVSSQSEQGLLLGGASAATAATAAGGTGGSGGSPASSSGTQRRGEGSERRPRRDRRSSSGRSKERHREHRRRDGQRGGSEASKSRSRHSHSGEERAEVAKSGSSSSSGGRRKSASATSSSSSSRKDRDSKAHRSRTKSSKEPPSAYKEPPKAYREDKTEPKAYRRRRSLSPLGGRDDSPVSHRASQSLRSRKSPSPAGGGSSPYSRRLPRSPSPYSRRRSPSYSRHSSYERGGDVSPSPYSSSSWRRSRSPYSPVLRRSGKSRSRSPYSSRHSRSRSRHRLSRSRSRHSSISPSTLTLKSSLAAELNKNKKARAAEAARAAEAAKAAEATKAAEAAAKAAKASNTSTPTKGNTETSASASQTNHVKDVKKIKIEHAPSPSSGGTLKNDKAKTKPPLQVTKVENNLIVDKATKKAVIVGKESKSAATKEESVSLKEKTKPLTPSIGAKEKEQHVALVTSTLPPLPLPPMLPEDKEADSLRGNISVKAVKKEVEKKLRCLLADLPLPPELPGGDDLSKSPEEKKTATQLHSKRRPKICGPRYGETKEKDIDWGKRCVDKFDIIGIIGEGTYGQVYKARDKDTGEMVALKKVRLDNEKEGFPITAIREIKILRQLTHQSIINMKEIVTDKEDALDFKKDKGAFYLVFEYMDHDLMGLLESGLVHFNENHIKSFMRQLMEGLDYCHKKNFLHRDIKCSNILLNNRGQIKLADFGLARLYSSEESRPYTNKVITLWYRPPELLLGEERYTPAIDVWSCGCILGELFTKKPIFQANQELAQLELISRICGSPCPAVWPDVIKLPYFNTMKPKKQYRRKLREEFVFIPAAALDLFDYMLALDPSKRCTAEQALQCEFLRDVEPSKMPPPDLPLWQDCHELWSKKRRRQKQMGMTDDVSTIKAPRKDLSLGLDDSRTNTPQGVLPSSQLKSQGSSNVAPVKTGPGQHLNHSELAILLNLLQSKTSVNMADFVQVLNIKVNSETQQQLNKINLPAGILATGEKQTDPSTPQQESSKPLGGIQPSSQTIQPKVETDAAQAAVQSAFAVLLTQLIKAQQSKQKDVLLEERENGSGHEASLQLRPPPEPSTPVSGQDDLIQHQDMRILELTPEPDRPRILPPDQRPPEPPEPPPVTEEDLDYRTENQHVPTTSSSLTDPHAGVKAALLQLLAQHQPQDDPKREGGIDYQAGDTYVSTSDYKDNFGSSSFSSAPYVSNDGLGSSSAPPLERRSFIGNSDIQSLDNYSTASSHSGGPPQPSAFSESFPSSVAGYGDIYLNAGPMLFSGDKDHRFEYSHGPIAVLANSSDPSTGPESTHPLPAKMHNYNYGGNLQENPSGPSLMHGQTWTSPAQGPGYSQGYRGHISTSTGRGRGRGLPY
Sequence of CDK13/cyclinK(h) (O75909 whole entry partner): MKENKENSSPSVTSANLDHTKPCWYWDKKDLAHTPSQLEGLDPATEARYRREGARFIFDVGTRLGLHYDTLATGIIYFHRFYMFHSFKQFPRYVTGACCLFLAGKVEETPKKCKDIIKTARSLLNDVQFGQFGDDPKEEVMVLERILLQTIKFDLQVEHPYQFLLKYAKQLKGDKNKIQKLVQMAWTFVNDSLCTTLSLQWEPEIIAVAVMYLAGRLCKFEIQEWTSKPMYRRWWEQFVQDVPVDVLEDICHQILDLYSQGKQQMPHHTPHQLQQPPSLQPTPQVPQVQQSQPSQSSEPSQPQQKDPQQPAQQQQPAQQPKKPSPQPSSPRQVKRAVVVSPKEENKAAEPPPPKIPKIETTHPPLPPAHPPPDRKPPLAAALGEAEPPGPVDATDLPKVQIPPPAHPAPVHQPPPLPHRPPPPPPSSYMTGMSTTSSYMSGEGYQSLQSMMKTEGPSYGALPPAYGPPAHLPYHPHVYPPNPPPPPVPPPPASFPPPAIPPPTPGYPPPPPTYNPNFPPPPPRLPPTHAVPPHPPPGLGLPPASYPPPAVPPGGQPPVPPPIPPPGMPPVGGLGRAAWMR
Sequence of Ret(V804M)(h) (P07949 whole entry V804M): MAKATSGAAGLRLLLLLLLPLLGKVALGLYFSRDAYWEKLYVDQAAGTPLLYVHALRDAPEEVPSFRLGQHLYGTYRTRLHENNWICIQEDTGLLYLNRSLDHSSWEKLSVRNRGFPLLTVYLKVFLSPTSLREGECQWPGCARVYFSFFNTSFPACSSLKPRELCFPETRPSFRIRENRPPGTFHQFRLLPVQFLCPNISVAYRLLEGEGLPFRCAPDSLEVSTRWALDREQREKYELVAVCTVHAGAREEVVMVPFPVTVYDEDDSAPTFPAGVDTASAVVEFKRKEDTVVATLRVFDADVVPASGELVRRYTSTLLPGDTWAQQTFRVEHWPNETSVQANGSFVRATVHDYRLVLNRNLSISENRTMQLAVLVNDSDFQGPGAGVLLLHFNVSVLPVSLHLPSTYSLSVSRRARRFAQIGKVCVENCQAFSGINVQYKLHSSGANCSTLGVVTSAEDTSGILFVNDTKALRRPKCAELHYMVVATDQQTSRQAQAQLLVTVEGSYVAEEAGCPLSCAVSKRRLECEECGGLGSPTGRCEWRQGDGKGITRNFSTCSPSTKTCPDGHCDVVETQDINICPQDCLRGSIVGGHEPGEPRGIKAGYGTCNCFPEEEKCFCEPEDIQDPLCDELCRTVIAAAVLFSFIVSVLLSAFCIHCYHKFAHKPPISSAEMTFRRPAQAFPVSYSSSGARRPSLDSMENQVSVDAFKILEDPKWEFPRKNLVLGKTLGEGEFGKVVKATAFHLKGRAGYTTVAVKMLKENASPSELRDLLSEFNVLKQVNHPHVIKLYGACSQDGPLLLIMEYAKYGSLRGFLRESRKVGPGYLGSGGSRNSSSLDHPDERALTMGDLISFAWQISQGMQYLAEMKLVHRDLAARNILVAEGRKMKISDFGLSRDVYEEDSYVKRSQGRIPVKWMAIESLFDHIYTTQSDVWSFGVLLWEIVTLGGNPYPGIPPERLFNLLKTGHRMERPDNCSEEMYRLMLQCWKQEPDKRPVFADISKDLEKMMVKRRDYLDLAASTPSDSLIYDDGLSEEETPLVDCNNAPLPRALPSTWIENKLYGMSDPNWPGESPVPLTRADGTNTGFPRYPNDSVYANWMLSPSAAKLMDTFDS
T7 sequence (Q9BQI3 whole entry): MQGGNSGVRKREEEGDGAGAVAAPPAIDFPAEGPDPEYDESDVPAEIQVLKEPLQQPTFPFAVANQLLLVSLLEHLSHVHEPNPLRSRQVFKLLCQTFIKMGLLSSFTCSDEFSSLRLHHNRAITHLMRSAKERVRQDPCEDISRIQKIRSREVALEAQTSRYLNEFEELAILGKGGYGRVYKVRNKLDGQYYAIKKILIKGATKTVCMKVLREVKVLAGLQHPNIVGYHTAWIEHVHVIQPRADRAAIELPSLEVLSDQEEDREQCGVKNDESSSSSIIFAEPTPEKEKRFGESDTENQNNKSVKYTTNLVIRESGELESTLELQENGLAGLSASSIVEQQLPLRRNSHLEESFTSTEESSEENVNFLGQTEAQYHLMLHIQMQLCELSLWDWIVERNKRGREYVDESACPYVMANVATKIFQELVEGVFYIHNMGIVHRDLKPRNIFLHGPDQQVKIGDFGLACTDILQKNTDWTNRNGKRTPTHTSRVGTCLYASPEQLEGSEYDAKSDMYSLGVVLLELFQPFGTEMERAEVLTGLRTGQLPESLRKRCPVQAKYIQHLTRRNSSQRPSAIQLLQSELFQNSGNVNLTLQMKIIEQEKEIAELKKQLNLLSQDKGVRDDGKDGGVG
Sequence of TSSK4(h) (Q6SA08 whole entry): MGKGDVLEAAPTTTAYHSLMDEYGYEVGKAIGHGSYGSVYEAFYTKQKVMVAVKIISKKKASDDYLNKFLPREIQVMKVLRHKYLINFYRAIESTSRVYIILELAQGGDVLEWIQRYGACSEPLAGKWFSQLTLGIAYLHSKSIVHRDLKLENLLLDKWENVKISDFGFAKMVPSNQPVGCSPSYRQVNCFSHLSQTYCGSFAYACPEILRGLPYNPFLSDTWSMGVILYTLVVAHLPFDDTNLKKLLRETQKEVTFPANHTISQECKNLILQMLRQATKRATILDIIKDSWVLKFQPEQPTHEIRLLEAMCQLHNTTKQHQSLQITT

Consider `C1=C(c2nc(-c3cnn(C4CCNCC4)c3)cn3cc(-c4ccccc4)nc23)CCOC1` [YL-939], for which the remaining activity at 10 µM at ROCK-II(h) worked out at 89%; at CSK(h), 105%; at Ret(V804M)(h), 102%; on CaMKIIβ(h) it was 70%; on NEK2(h), 99%; on TNIK(h) it was 56%. For the same molecule, the remaining activity at 10 µM at EGFR(L858R)(h) worked out at 86%; on TSSK4(h), 97%; at MSK1(h) it was 79%; on MLCK(h), 60%; at ATR/ATRIP(h), 88%; at Txk(h) it was 73%. Also, the remaining activity at 10 µM at CaMKK1(h) worked out at 91%; on Pyk2(h) it was 108%; on CDK13/cyclinK(h) it was 93%; on Lyn(h), 95%; at MELK(h), 91%; at EphB4(h) it was 97%. Moreover, the remaining activity at 10 µM on WNK2(h) amounted to 76%; on IKKε(h), 113%; on HRI(h) it was 111%; at SBK1(h), 106%; at cKit(h), 81%.
